Assay results: US11117905B2, “Bisaryl heterocycles as NRF2 activators” (GLAXOSMITHKLINE INTELLECTUAL PROPERTY DEVELOPMENT LIMITED, priority 2016, dated 2021)

Test system: NQO1 specific enzyme activity in BEAS-2B cells (marker for NRF2 activation)
Experiment: BEAS-2B NQO1 MTT Assay
Assay type: cell-based
Settings: Homo sapiens, BEAS-2B, 48 h, NQO1 specific activity induction, 48 hours with compound
From the text: NAD(P)H:quinone oxidoreductase 1 (NQO1), also called DT diaphorase, is a homodimeric FAD-containing enzyme that catalyzes obligatory NAD(P)H-dependent two-electron reductions of quinones and protects cells against the toxic and neoplastic effects of free radicals and reactive oxygen species arising from one-electron reductions. The transcription of NQO1 is finely regulated by NRF2, and thus NQO1 activity is a good marker for NRF2 activation. On day one, frozen BEAS-2B cells (ATCC) were thawed in a water bath, counted, and re-suspended at a concentration of 250,000 cells/mL. Fifty microliters of cells were plated in 384 well black clear-bottomed plates. Plates were incubated at 37° C., 5% CO2 overnight. On day two, plates were centrifuged and 50 nL of compound or controls were added to the cells. Plates were then incubated at 37° C., 5% CO2 for 48 hours. On day four, medium was aspirated from the plate and crude cell lysates were made by adding 13 uL of 1× Cell Signaling Technologies lysis buffer with 1 Complete, Mini, EDTA-free Protease Inhibitor Tablet (Roche) for each 10 mL of lysis buffer. After lysis plates were incubated for 20 minutes at room temperature. Two microliters of lysate were removed for use in Cell Titer Glo assay (Promega) and MTT cocktail was prepared (Prochaska et. al. 1998) for measurement of NQO1 activity. Fifty microliters of MTT cocktail is added to each well, plate is centrifuged, and analyzed on an Envision plate reader (Perkin Elmer) using Absorbance 570 nm label for 30 minutes. Product formation was measured kinetically and the pEC50 of NQO1 specific activity induction was calculated by plotting the change in absorbance (Delta OD/min) versus the log of compound concentration followed by 3-parameter fitting.
pEC50 is the negative log of the EC50.
EC50s<1 nM (+++++), EC50s 1 nM-10 nM (++++), EC50s 10 nM-100 nM (+++), EC50s 100 nM-1 uM (++), EC50s 1 uM-10 uM (+), EC50s>10 uM (−), or were not determined (ND).

SMILES	EC50
CC[C@@H]1CN(Cc2cc([C@H](CCc3cn(CC)nn3)C(C)(C)C(=O)O)sc2C)S(=O)(=O)c2cccnc2O1 [Example 58, (R)-3-(4-(((R)-4-Ethyl-1,1-dioxido-3,4-dihydro-2H-pyrido[2,3-b][1,4,5]oxathiazepin-2-yl)methyl)-5-methylthiophen-2-yl)-5-(1-ethyl-1H-1,2,3-triazol-4-yl)-2,2-dimethylpentanoic Acid]	1 to 10 nM
CC[C@H]1Cc2ccc(C(F)(F)F)cc2S(=O)(=O)N(Cc2cc([C@@H](c3ccc4c(nnn4CC)c3C)C(C)(C)C(=O)O)sc2C)C1 [Example 55, (S)-3-(4-(((S)-4-Ethyl-1,1-dioxido-8-(trifluoromethyl)-4,5-dihydrobenzo[f][1,2]thiazepin-2(3H)-yl)methyl)-5-methylthiophen-2-yl)-3-(1-ethyl-4-methyl-1H-benzo[d][1,2,3]triazol-5-yl)-2,2-dimethylpropanoic Acid]	< 1 nM
CC[C@@H]1CN(Cc2cc([C@H](CC(=O)O)c3ccc4c(nnn4CC)c3C)sc2Cl)S(=O)(=O)c2ccccc2O1 [Example 5, (R)-3-(5-Chloro-4-(((R)-4-ethyl-1,1-dioxido-3,4-dihydro-2H-benzo[b][1,4,5]oxathiazepin-2-yl)methyl)thiophen-2-yl)-3-(1-ethyl-4-methyl-1H-benzo[d][1,2,3]triazol-5-yl)propanoic acid]	10 to 100 nM
CCn1nnc2c(C)c([C@H](c3nc(CN4C[C@@H](C)Cc5cc(C(F)(F)F)ccc5S4(=O)=O)c(C)s3)C(C)(C)C(=O)Nc3cccnc3)ccc21 [Example 45, (S)-3-(1-Ethyl-4-methyl-1H-benzo[d][1,2,3]triazol-5-yl)-2,2-dimethyl-3-(5-methyl-4-(((S)-4-methyl-1,1-dioxido-7-(trifluoromethyl)-4,5-dihydrobenzo[f][1,2]thiazepin-2(3H)-yl)methyl)thiazol-2-yl)-N-(pyridin-3-yl)propanamide]	10 to 100 nM
CCn1nnc2c(C)c([C@H](c3cc(CN4CCC[C@H](n5cccn5)C4)c(C)s3)C(C)(C)C(=O)O)ccc21 [Example 32, (S)-3-(4-(((S)-3-(1H-Pyrazol-1-yl)piperidin-1-yl)methyl)-5-methylthiophen-2-yl)-3-(1-ethyl-4-methyl-1H-benzo[d][1,2,3]triazol-5-yl)-2,2-dimethylpropanoic acid]	100 to 1000 nM
CCC1CCN(Cc2nccn2Cc2cc([C@@H](c3ccc4c(nnn4CC)c3C)C(C)(C)C(=O)O)sc2C)CC1 [Example 12, (S)-3-(1-Ethyl-4-methyl-1H-benzo[d][1,2,3]triazol-5-yl)-3-(4-((2-((4-ethylpiperidin-1-yl)methyl)-1H-imidazol-1-yl)methyl)-5-methylthiophen-2-yl)-2,2-dimethylpropanoic acid]	1 to 10 nM
CC[C@@H]1CN(Cc2cc([C@H](CC(=O)O)c3ccc4c(nnn4CC)c3C)sc2C)S(=O)(=O)c2cccnc2O1 [Example 46, (R)-3-(4-(((R)-4-Ethyl-1,1-dioxido-3,4-dihydro-2H-pyrido[2,3-b][1,4,5]oxathiazepin-2-yl)methyl)-5-methylthiophen-2-yl)-3-(1-ethyl-4-methyl-1H-benzo[d][1,2,3]triazol-5-yl)propanoic Acid]	10 to 100 nM
CCn1nnc2c(C)c([C@H](c3cc(CN4C[C@@H](C)Cc5ncccc5S4(=O)=O)n(C)n3)C(C)(C)C(=O)O)ccc21 [Example 31, (S)-3-(1-Ethyl-4-methyl-1H-benzo[d][1,2,3]triazol-5-yl)-2,2-dimethyl-3-(1-methyl-5-(((S)-4-methyl-1,1-dioxido-4,5-dihydropyrido[2,3-f][1,2]thiazepin-2(3H)-yl)methyl)-1H-pyrazol-3-yl)propanoic Acid]	100 to 1000 nM
CC[C@@H]1CN(Cc2cc([C@H](CCc3cn(CC)nn3)C(C)(C)C(=O)O)sc2C)S(=O)(=O)c2ccccc2O1 [Example 64, (R)-3-(4-(((R)-4-Ethyl-1,1-dioxido-3,4-dihydro-2H-benzo[b][1,4,5]oxathiazepin-2-yl)methyl)-5-methylthiophen-2-yl)-5-(1-ethyl-1H-1,2,3-triazol-4-yl)-2,2-dimethylpentanoic Acid]	< 1 nM
CCn1nnc2c(F)c([C@H](c3cc(CN4C[C@@H](C)Cc5ccc(C(F)(F)F)cc5S4(=O)=O)c(Cl)s3)C(C)(C)C(=O)O)ccc21 [Example 57, (R)-3-(5-Chloro-4-(((S)-4-methyl-1,1-dioxido-8-(trifluoromethyl)-4,5-dihydrobenzo[f][1,2]thiazepin-2(3H)-yl)methyl)thiophen-2-yl)-3-(1-ethyl-4-fluoro-1H-benzo[d][1,2,3]triazol-5-yl)-2,2-dimethylpropanoic Acid]	< 1 nM
CCn1nnc2c(F)c([C@@H](c3cc(CN4C[C@@H](C)Cc5ccc(C(F)(F)F)cc5S4(=O)=O)c(Cl)s3)C(C)(C)C(=O)O)ccc21 [Example 43, (S)-3-(5-Chloro-4-(((S)-4-methyl-1,1-dioxido-8-(trifluoromethyl)-4,5-dihydrobenzo[f][1,2]thiazepin-2(3H)-yl)methyl)thiophen-2-yl)-3-(1-ethyl-4-fluoro-1H-benzo[d][1,2,3]triazol-5-yl)-2,2-dimethylpropanoic Acid]	10 to 100 nM
CCn1nnc2c(C)c([C@H](c3cc(CN4C[C@H](C)Cc5ccccc5S4(=O)=O)c(C)s3)C(C)(C)C(=O)O)ccc21 [Example 17, (S)-3-(1-Ethyl-4-methyl-1H-benzo[d][1,2,3]triazol-5-yl)-2,2-dimethyl-3-(5-methyl-4-(((R)-4-methyl-1,1-dioxido-4,5-dihydrobenzo[f][1,2]thiazepin-2(3H)-yl)methyl)thiophen-2-yl)propanoic Acid]	1 to 10 nM
CC[C@@H]1CN(Cc2cc([C@H](c3ccc4c(nnn4CC)c3F)C(C)(C)C(=O)O)sc2Cl)S(=O)(=O)c2ccccc2O1 [Example 40, (S)-3-(5-Chloro-4-(((R)-4-ethyl-1,1-dioxido-3,4-dihydro-2H-benzo[b][1,4,5]oxathiazepin-2-yl)methyl)thiophen-2-yl)-3-(1-ethyl-4-fluoro-1H-benzo[d][1,2,3]triazol-5-yl)-2,2-dimethylpropanoic Acid]	10 to 100 nM
CC[C@@H]1CN(Cc2cc([C@@H](c3ccc4c(nnn4CC)c3C)C(C)(C)C(=O)O)sc2Cl)S(=O)(=O)c2cccnc2O1 [Example 54, (S)-3-(5-Chloro-4-(((R)-4-ethyl-1,1-dioxido-3,4-dihydro-2H-pyrido[2,3-b][1,4,5]oxathiazepin-2-yl)methyl)thiophen-2-yl)-3-(1-ethyl-4-methyl-1H-benzo[d][1,2,3]triazol-5-yl)-2,2-dimethylpropanoic Acid]	< 1 nM
CC[C@@H]1CN(Cc2nc([C@@H](c3ccc4c(nnn4CC)c3C)C(C)(C)C(=O)O)sc2C)S(=O)(=O)c2cccnc2O1 [Example 26, (S)-3-(4-(((R)-4-Ethyl-1,1-dioxido-3,4-dihydro-2H-pyrido[2,3-b][1,4,5]oxathiazepin-2-yl)methyl)-5-methylthiazol-2-yl)-3-(1-ethyl-4-methyl-1H-benzo[d][1,2,3]triazol-5-yl)-2,2-dimethylpropanoic Acid]	1 to 10 nM
CC[C@@H]1CN(Cc2cc([C@@H](c3ccc4c(nnn4CC)c3C)C(C)(C)C(=O)O)sc2Cl)S(=O)(=O)c2cnccc2O1 [Example 56, (S)-3-(5-Chloro-4-(((R)-4-ethyl-1,1-dioxido-3,4-dihydro-2H-pyrido[4,3-b][1,4,5]oxathiazepin-2-yl)methyl)thiophen-2-yl)-3-(1-ethyl-4-methyl-1H-benzo[d][1,2,3]triazol-5-yl)-2,2-dimethylpropanoic Acid]	< 1 nM
CC[C@@H]1CN(Cc2cc([C@@H](CCc3cn(CC)nn3)C(C)(C)C(=O)O)sc2C)S(=O)(=O)c2ccccc2O1 [Example 63, (S)-3-(4-(((R)-4-Ethyl-1,1-dioxido-3,4-dihydro-2H-benzo[b][1,4,5]oxathiazepin-2-yl)methyl)-5-methylthiophen-2-yl)-5-(1-ethyl-1H-1,2,3-triazol-4-yl)-2,2-dimethylpentanoic Acid]	1 to 10 nM

Same assay, conditions: NQO1 specific activity induction, 48 hours with compound

SMILES	EC50
CC[C@@H]1CN(Cc2cc(C(CC(=O)O)c3ccc4c(nnn4CC)c3C)sc2C)S(=O)(=O)c2ccccc2O1 (single isomer, unassigned; isomer 1) [Example 20, (R or S)-3-(4-(((R)-4-Ethyl-1,1-dioxido-3,4-dihydro-2H-benzo[b][1,4,5]oxathiazepin-2-yl)methyl)-5-methylthiophen-2-yl)-3-(1-ethyl-4-methyl-1H-benzo[d][1,2,3]triazol-5-yl)propanoic acid Isomer 1]	10 to 100 nM
CC[C@@H]1CN(Cc2nc(C(c3ccc4c(nnn4CC)c3C)C(C)(C)C(=O)O)sc2C)S(=O)(=O)c2ccccc2O1 (single isomer, unassigned; isomer 1) [Example 13, (R or S)-3-(4-(((R)-4-Ethyl-1,1-dioxido-3,4-dihydro-2H-benzo[b][1,4,5]oxathiazepin-2-yl)methyl)-5-methylthiazol-2-yl)-3-(1-ethyl-4-methyl-1H-benzo[d][1,2,3]triazol-5-yl)-2,2-dimethylpropanoic Acid Isomer 1]	1 to 10 nM
